# Columns and labels:
# [1] = system: LAPC-4 prostate cancer cells; assay: LAPC-4 prostate cancer cell growth (CyQuant or BCA cell proliferation assay); format: cell-based, human; conditions: for block of the effect of 1 nM DHT to stimulate proliferation: much smaller effects on non-androgen mediated growth
# Description: LAPC-4 prostate cancer cells were maintained at 37° C., 5% CO2 in phenol-free RPMI+10% FCS RPMI. Steroid free medium consisted of phenol-free RPMI supplemented with 10% dextran-coated, charcoal-treated serum (10% CDSS RPMI). LAPC-4 cells were incubated in this steroid-free 10% CDSS RPMI for 3 days prior to plating in 96 well plates (5×10^3 cells/well). […] The medium with androgens and inhibitors was refreshed on day 3. The plates were harvested on day 7 by inverting the microplate onto paper towels with gentle blotting to remove growth medium without disrupting adherent cells and freezing them at −80° C. for at least 30 minutes. LAPC-4 prostate cancer cell growth was determined using either the CyQuant cell proliferation assay (Molecular Probes, Eugene, Oreg.) or by the BCA assay (Pierce, Rockford, Ill.). Cell proliferation was calculated as the percent of content versus control cells at day 0.
# Each value shown is the mean+SD for triplicate determinations. In FIGS. 1a and 2b, cell proliferation was measured by BCA, and in FIG. 1c by the CyQuant method. In all future studies, the CyQuant method was employed to measure proliferation.
# IGF-1 receptor = IGF-1 receptor content in LAPC-4 cells (immunoprecipitation, western blot); format: cell-based, human
# Description: At the end of the incubation period, cells were washed twice with PBS and solubilized with lysis buffer (50 mM HEPES pH 7.6, 150 mM NaCl, 0.1% Triton X-100, 1 mM PMSF, 2 mM Na3VO4) for 1 hour at 4° C. […] The immunoprecipitated samples were run on SDS-PAGE, under reducing condition. Following transfer to nitrocellulose membrane, levels of IGF-1 receptor were assessed by western blot. Following an overnight incubation at 4° C., the membranes were washed 3 times with TBST and then incubated with HRP-conjugated anti-rabbit IgG diluted 1:50,000 in the same blocking buffer for 90 minutes at room temperature. After washing, blots were incubated with Super Signal (Pierce Chemicals, Rockford, Ill.), and exposed to film.
# insulin receptor (IR) = conditions: FIG. 5c
# Description: Level of insulin receptor was determined in 15 μg of total protein run on SDS-PAGE under reducing conditions, transferred to nitrocellulose membrane, and analyzed by probing with an anti-insulin receptor antibody CT-3, diluted 1:1000 in 1% milk, 1% BSA in TBST at 4° C. overnight. The secondary anti-mouse IgG, diluted 1:2000 in the same blocking buffer, was applied for 90 minutes at room temperature. Blots were incubated with SuperSignal, and exposed to film.
# IGF-1 receptor mRNA = assay: IGF-1 receptor gene expression by quantitative PCR in LAPC-4 cells; format: cell-based, human; conditions: FIG. 6a
# Description: A large master mix of the above-mentioned components (minus the primers, probe and cDNA) was made for each experiment and aliquoted into individual tubes, one for each cDNA sample. cDNA was then added to the aliquoted master mix. The master mix with cDNA was aliquoted into a 384-well plate, with nine wells used for each cDNA sample. The primers and probes were mixed together and added to the master mix and cDNA in the 384-well plate. PCR was conducted on the ABI 7900HT (Applied Biosystems, CA) using the following cycle parameters: 1 cycle of 95° C. for 10 minutes, 40 cycles of 95° C. for 15 seconds, 60° C. for 1 minute. Analysis was carried out using the SDS software (version 2.3) supplied with the ABI 7900HT. The Ct values for each set of three reactions were averaged for all subsequent calculations. PCR primer and TaqMan probe sequences were either synthesized by Integrated DNA Technologies (Coralville, Iowa) or purchased from Applied Biosystems (Foster City, Calif.).
# LAPC-4 cells = assay: LAPC-4 growth in soft agar (anchorage independent growth), CyQuant; format: cell-based, human; conditions: 1 nM DHT, 6 days, FIG. 3b
# [2] = system: patients with both androgen-dependent and androgen-independent prostate cancer; conditions: Ryan et al. (2008), cited from earlier work
smiles,measurement,setting,value
"C[C@]12CCC(=O)C[C@@H]1CC[C@@H]1[C@@H]2CC[C@]2(C)[C@@H](O)CC[C@@H]12 [DHT, dihydrotestosterone]",affect to stimulate growth above control,"[1]; DHT at 10 nM, 7 days, 3 separate experiments, mean+SEM",83+8%
same,concentration at which a major effect on proliferation was observed,[1]; FIG. 1b,0.1 nM
same,concentration at which a significant effect on IGF-1 receptor content was observed,IGF-1 receptor; FIG. 5b,0.1 nM
same,effect on content of the IGF-1 receptor,"IGF-1 receptor; western blot, FIG. 5a",markedly increased
same,change in content of insulin receptor (IR),insulin receptor (IR),no change
same,concentration that maximally increases IGF-1 receptor gene expression,IGF-1 receptor mRNA,0.1 nM
"C[C@H](Cc1ccc(O)c(O)c1)[C@@H](C)Cc1ccc(O)c(O)c1 [NDGA, Meso-nordihydroguaiaretic acid]",IC50,"[1]; Homo sapiens, LAPC4, 5 separate experiments, mean+SEM, read-out: half-maximal effect to inhibit androgen-stimulated growth",5 µM
same,inhibition of the effect of DHT on growth in soft agar,LAPC-4 cells,inhibited anchorage independent growth
same,IC50,"IGF-1 receptor; read-out: effects to inhibit DHT-induced IGF-1 receptor content, 3 separate experiments, mean+SEM, FIG. 5e",11 µM
same,inhibition of the effect of DHT to increase expression of IGF-1 receptor,IGF-1 receptor mRNA; NDGA at 10 μM,completely inhibit
same,clinical safety,[2],reasonable safety
same,effect on PSA,[2]; patients with non-castrate levels of testosterone and a rising PSA,modest declines in PSA
Nc1ncnc2c1c(-c1cccc(OCc3ccccc3)c1)cn2C1CC(CN2CCC2)C1 (centres unmarked) [NVP-AEW541],block of the effect of 1 nM DHT to stimulate proliferation,[1],completely blocked
"COc1cc([C@@H]2c3cc4c(cc3[C@H](O)[C@H]3COC(=O)[C@@H]23)OCO4)cc(OC)c1OC [PPP, picropodophyllin]",block of the effect of 1 nM DHT to stimulate proliferation,[1],completely blocked

# — patent US20090280112A1 (The Regents of the University of California, priority 2008, published 2009)
